{"source": "patent US20220339178A1", "about": "“COMPOSITIONS AND METHODS FOR COGNITIVE PROTECTION OF POLLINATORS AGAINST PESTICIDES” (priority 2019, published 2022)", "key": {"[1]": {"test_system": "Honey bee foragers (Apis mellifera scutellata)", "test": "Sucrose responsiveness (sensory sensitivity) of honey bees: flavonoids vs deltamethrin", "format": "in vivo", "details": "honey bees; rutin 1 μM, kaempferol 131.7 μM or both for one day; 17.81 μM deltamethrin next day; pooled score", "method": "Honey bee foragers (Apis mellifera scutellata) were captured from established hives at the Apiary of the Universidad del Rosario (Bogota, Colombia) between 08:00 h and 10:00 h. Bees were ice-anesthetized and harnessed in plastic tubes and maintained under laboratory conditions for the duration of the experiment (three days).\nOn the first day, bees were randomly allocated to one of four treatments administered as two doses (morning: 20 μL; afternoon:10 μL): i) Control (1M sucrose solution), ii) Rutin 1 μM (Sigma-Aldrich R5143), iii) Kaempferol 131.7 μM (Sigma-Aldrich K0133), iv) Rutin-Kaempferol composition (final concentration of […] rutin and 131.7 μM kaempferol). All solutions were diluted in 1M sucrose solution to the concentrations described above. The next day, bees from each group were randomly assigned to one of two treatments: […] of 1M sucrose solution or 17.81 μM deltamethrin (Dinastia Bayer). Thus, bees belonged to one of eight treatments: i) Sucrose water (Control), ii) Rutin (Rut), iii) Kaempferol (Kaemp), iv) Kaempferol+Rutin (Kaemp+Rut), v) Deltamethrin (Delta), vi) Rutin+Deltamethrin (Rut+Delta), vii) Kaempferol+Deltamethrin (Kaemp+Delta), viii) Kaempferol+Rutin+Deltamethrin ((Kaemp+Rut)+Delta). All solutions were diluted in 1M sugar water to the concentrations described above.\nSensory sensitivity was evaluated using responsiveness to sucrose, a proxy of resource exploitation by foragers. On the second day, bees of the eight treatments described above were tested five times for their response threshold (0 h, 1 h, 2 h, 3 h and 4 h). The first measure (0 h) was done prior to pesticide administration. Bees were tested with an ascending sucrose concentration of 0.1, 0.3, 1, 3, 10 and 30% (w/w). Between each concentration, the bees were presented with pure water as a control for potential sensitization or habituation (Pankiw et al., Behav Ecol Sociobiol (2000) 47:265-267). The inter-trial time between the presentation of each sucrose concentration was at least 4 minutes. For each presentation, the reflexive extension of the proboscis (tongue) of the bee, after antennal stimulation with the solution was recorded. After the last measure (4 h), bees were fed with 10 μL of 1M sucrose solution and maintained until the next day for a final test (24 hours after pesticide administration).\nFor each bee, a responsiveness score was determined (0-7) 0 h, 1 h, 2 h, 3 h, 4 h and 24 h, and a pooled scored (0-42). Normal distribution of the scores was tested using Shapiro-Wilk W Test for the null hypothesis that data is from a Normal distribution. […] Thus, non-parametric tests were used for comparisons across treatments and for multiple comparisons. Overall changes of responses across different concentrations were evaluated using repeated-measured MANOVA. Error associated with multiple comparisons was controlled using the Two-stage sharpened False Discovery Rate, and corrected p-values (q-values) are presented. Data were explored for outliers using a single run of Robust Fit outliers test. All analyses were conducted using JMP v.14 (SAS Institute Inc.)"}, "[2]": {"test_system": "bumblebee Bombus impatiens", "test": "Olfactory conditioning of PER in bumblebees: self-administered rutin vs chronic fipronil", "format": "in vivo", "details": "bumblebees; score 0-10; self-administered 1 μM rutin six days; 6 nM fipronil feeder for the last three days (chronic)", "method": "One colony of the bumblebee Bombus impatiens (Koppert Inc) was kept in laboratory conditions. Bees received pollen inside the nests and foraged to a 1M sugar-water feeder outside of the nest. Bees were collected while on the feeder and iced anesthetized to then be randomly assigned to one of four plastic containers where self-administration of one of two solutions was allowed to 10 bees out of two feeders (glass vials with 500 μL of solution each): i) 1 M sucrose water or ii) 1 μM Rutin (Sigma-Aldrich R5143) diluted in 1M sucrose water. Feeders were refilled each day for three days. On the night of the third day, one of the vials was replaced by a new one with one of two solutions: i) 1 M sucrose water or ii) 1M sucrose water+6 nM fipronil. Feeders were refilled each day for three more days, thus providing a chronic exposure to fipronil. On the night of the […] day, bees were iced anesthetized and yolked restrained in plastic pipettes. Thus, bees belonged to one of four treatments:\nControl: self-administered sucrose water for six days\nRut: self-administered rutin for six days\nFipro: self-administered sucrose water for three days followed by three days of self-administered sucrose water (one feeder) and fipronil (one feeder).\nRut+Fipro: self-administered rutin for three days followed by three days of self-administered rutin (one feeder) and fipronil (one feeder).\nAll bees were blind-trained using olfactory conditioning of the proboscis extension response (PER). Briefly, bees were exposed to a presentation of 1-nonanol (Sigma-Aldrich) for 10 s. After 7 s of the onset of the odor presentation, the antenna was stimulated with 1.5 M sugar-water to elicit the PER. Following the PER, the bee was allowed to drink sugar-water for 3 s. Each paired presentation was considered a training trial and each individual received eleven training trials with an average intertrial interval of 10 minutes. After training, all bees were fed 20 μL of 1M sugar water and maintained in plastic boxes for 24 h until the retention test. […] Twenty-four hours after the last training trial the bees were presented with the conditioned odor for 10 s.\nLearning for each individual was quantified as the number of conditioned PER responses across the trials. Thus, for each bee a learning score between zero and ten (0-10) was recorded.\nMultiple comparisons were then run comparing learning score relative to Control bees using a non-parametric one or two-tailed Steel Method depending upon predictions. These comparisons informed us about the predicted impairment produced by the fipronil, the predicted innocuous effect of the rutin and the potential level of protection. Error due to multiple comparisons was controlled using the False Discovery Rate method (FDR-two stage sharpened method). In all cases corrected p-values (q-values) are presented.\nMemory retention was quantified as a nominal variable (yes/no). Data were compared across treatments using a Chi-square test, followed by multiple comparisons of all treatments vs. Control. Error due to multiple comparisons was controlled using the FDR as indicated above. In all cases corrected p-values (q values) are presented.\nLatency was quantified as a continuous variable between 0.5 s and 10 s. […]"}}, "data": [{"compound": "C[C@@H]1O[C@@H](OC[C@H]2O[C@@H](Oc3c(-c4ccc(O)c(O)c4)oc4cc(O)cc(O)c4c3=O)[C@H](O)[C@@H](O)[C@@H]2O)[C@H](O)[C@H](O)[C@H]1O", "note": "[Rutin]", "values": [{"measurement": "sensitivity (sucrose responsiveness, total PER score) relative to Control bees", "setting": "[1]", "value": "not significantly affected"}, {"measurement": "learning score relative to Control bees", "setting": "[2]", "value": "not significantly different"}]}]}
